In paper PMC5605686, “Ang-(1-7) is an endogenous β-arrestin-biased agonist of the AT1 receptor with protective action in cardiac hypertrophy” (Scientific Reports, 2017):
Where two headings read alike, the source gives them in different places.

Tests used:
AT1R [1] = biological target: T1, AT1R (Homo sapiens, UniProt P30556); test: Intramolecular BRET assay of β-arrestin 1 conformational changes (RLucII-β-arr1-GFP10); type: cell-based
T1 construct: expressed in transfected cells; host or cells: HEK293T
T1 sequence (P30556 1-359): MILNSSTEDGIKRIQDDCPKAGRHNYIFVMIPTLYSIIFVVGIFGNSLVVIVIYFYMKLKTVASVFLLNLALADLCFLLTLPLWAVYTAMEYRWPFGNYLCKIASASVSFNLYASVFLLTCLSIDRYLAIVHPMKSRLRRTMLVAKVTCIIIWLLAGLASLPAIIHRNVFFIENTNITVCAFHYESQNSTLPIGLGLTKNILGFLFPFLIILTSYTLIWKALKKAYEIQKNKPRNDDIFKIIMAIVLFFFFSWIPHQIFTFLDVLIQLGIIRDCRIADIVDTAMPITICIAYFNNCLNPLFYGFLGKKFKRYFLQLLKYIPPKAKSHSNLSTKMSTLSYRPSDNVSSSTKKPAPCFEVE
Procedure: (§1) Receptor promoted activation of β-arrestin results in a conformational rearrangement that can be monitored by BRET-based double brilliance biosensors assessing changes in BRET between RLucII and GFP10 fused respectively to the N- and C-termini of β-arrestins[35]–[37]. Therefore, to assess whether the recruitment of β-arrestins to the AT1R by Ang-(1-7) leads to activation, we monitored the agonist-promoted change in the intramolecular BRET.
(§2) HEK293T cells were cultured in DMEM supplemented with 10% heat-inactivated fetal bovine serum and 100 U/mL penicillin/streptomycin at 37 °C under 5% CO2. […]
(§3) HEK293T cells transiently expressing the AT1R (or AT1R-GFP) and BRET-based biosensors (Gαq-RLucII or Gαi3-RLucII, Gβ1 and Gγ1-GFP10; RLucII-β-arr1-GFP10; RLucII-β-arr2-GFP10; β-arr1-RLucII; β-arr2-RLucII) were washed once with PBS, detached, and seeded in 96-well white plates (OptiPlate – PerkinElmer, Waltham, MA, USA). Following agonist stimulation, cells were incubated at 37 °C and the luciferase substrate (coelenterazine H for BRET1 or coelenterazine 400a for BRET2 – Biotium, Hayward, CA, USA) was added 5 min before reading BRET in a Victor^TM X Light Luminescence microplate reader (PerkinElmer) equipped with different donor/acceptor emission filter sets. […]

AT1R [2] = biological target: T1, AT1R; test: Competition binding assay against [3H]AngII in whole HEK293T cells transiently expressing the AT1R
Procedure: (§4) HEK293T cells were cultured in DMEM supplemented with 10% heat-inactivated fetal bovine serum and 100 U/mL penicillin/streptomycin at 37 °C under 5% CO2. Cells were seeded in 100-mm dishes and 48 hours before the experiments, transiently transfected with the AT1R (alone or in combination with BRET-based biosensors). Transient transfections were performed using 25 kDa linear polyethylenimine (PEI – Polysciences, Warrington, PA, USA) at a ratio of 3:1 PEI/DNA. The total amount of transfected DNA was kept constant (10 μg/dish) by the addition of salmon sperm DNA.
Binding assays were performed in whole HEK293T cells at 48 hours after transfection. Twenty-four hours before the experiment, transfected cells were transferred to 24-well plates, treated with poly-L-lysine, and then incubated overnight at 37 °C, in a 5% CO2 environment. […] Samples were collected and mixed with 3 mL of scintillation liquid, and radioactivity was measured using a Liquid Scintillation Counter (Packard Tri-Carb 2100TR – PerkinElmer).

AT1R [3] = biological target: T1, AT1R; test: BRET-based biosensor assay of Gi3 activation in HEK293T cells expressing AT1R; type: cell-based
Procedure: as §4, §3

AT1R [4] = biological target: T1, AT1R; test: Intramolecular BRET assay of β-arrestin 2 conformational changes (RLucII-β-arr2-GFP10); type: cell-based
Procedure: as §1, §2, §3

[5] = system: isoproterenol-induced cardiac hypertrophy; test: Isoproterenol-induced cardiac hypertrophy in rats (HW/BW ratio, left ventricular wall thickness); type: in vivo, Wistar rats; conditions: 24 μg/kg per hour, osmotic mini-pump, 7 days, concomitantly with isoproterenol
Procedure: (§5) The isoproterenol-induced cardiac hypertrophy experimental model was chosen aiming to avoid any involvement of the RAS, as it is known that other models such as pressure-overload, SHR, or mRen2 involve RAS components[50],[60],[61]. Cardiac hypertrophy was induced in male, 6 weeks-old Wistar rats by administration of Isoproterenol [(Iso) 2 mg/kg per day, i.p. diluted in saline, for 7 days]. All experimental protocols were performed in accordance with the Brazilian Council for Control of Animal Experimentation - “Conselho Nacional de Controle de Experimentação Animal” (CONCEA), Brazil; and approved by the Animal Ethical Committee from the Ribeirão Preto Medical School, University of São Paulo (CEUA).
(§6) Rats receiving Iso were randomly submitted to treatment for 7 days with either vehicle, Ang-(1-7) [24 μg/kg per hour, via ALZET® osmotic minipumps (Durect, Cupertino, CA, USA)], Ang-(1-7) plus Losartan (10 mg/kg per day orally), Ang-(1-7) plus A779 (744 μg/kg per day i.p.), or Ang-(1-7) plus Losartan plus A779 (same doses as described). Doses and administration methods of drugs were based in previously published literature[62]–[66].
Cardiac hypertrophy was confirmed by cardiac mass and histomorphometric analyses. To determine cardiac mass, hearts were removed, dried and weighted. Heart weight (HW) was normalized by the body weight (BW) (HW/BW*1000). For histomorphometric analysis, hearts were cut transversely, fixed in paraformaldehyde (4%) for 24 hours, and kept in ethanol (70%) until dehydration, which consisted in sequential washes with 70, 80, 90 and 100% ethanol. Samples were cleared in xylene and embedded in paraffin. Transversal sections (6 µm) were obtained from the cardiac samples at intervals of 40 µm and stained with hematoxylin and eosin. Images were captured using an Olympus BK 50 microscope (Olympus Corporation of the Americas, Center Valley, PA, USA) equipped with a SPOT RT3 digital camera (Diagnostic Instruments, Inc., Sterling Heights, MI, USA) and measured with ImageJ software (NIH, USA).

AT1R [6] = biological target: T1, AT1R; test: BRET-based biosensor assay of Gq activation (Gαq-RLucII / Gγ1-GFP10) in HEK293T cells expressing AT1R; type: cell-based
Procedure: as §4, §3

AT1R [7] = biological target: T1, AT1R; test: Intracellular calcium mobilization assay (FLIPR Calcium 5) in HEK293T cells expressing AT1R; type: cell-based
Procedure: Cells were seeded in 100-mm dishes and 48 hours before the experiments, transiently transfected with the AT1R (alone or in combination with BRET-based biosensors). Transient transfections were performed using 25 kDa linear polyethylenimine (PEI – Polysciences, Warrington, PA, USA) at a ratio of 3:1 PEI/DNA. The total amount of transfected DNA was kept constant (10 μg/dish) by the addition of salmon sperm DNA. Twenty-four hours after transfection, HEK293T cells were washed once with PBS, detached, and seeded in 96-well clear-bottom black plates (Cellstar – Greiner Bio-One, Monroe, NC, USA) precoated with poly-L-lysine (Sigma-Aldrich, St. Louis, MO, USA). Cells were cultured in supplemented DMEM without phenol red (Gibco) at a density of 50,000 cells/well for an additional 24-hour period. […] To provide a baseline level, fluorescence was recorded every 2 seconds during 16 seconds. Following agonist stimulation, fluorescence continued to be recorded every 2 seconds for 90 seconds.

[8] = system: isoproterenol-induced cardiac hypertrophy; test: End-diastolic pressure (EDP) in rats with isoproterenol-induced cardiac hypertrophy; type: in vivo, Wistar rats; conditions: 24 μg/kg per hour, osmotic mini-pump, 7 days, concomitantly with isoproterenol
Procedure: as §5
as §6, with “Doses and administration methods of drugs were based in previously published literature[62]–[66].” left out
Rats were anesthetized with isoflurane (5% for induction and 2–2.5% to maintain anesthesia). […] After stabilization, signals were continuously recorded using a pressure-volume conductance system (MPVS, Millar Instruments) connected to a Power Lab/4SP (ADI Instruments, Sydney, NSW, Australia) feeding the digital signal to an […].

AT1R [9] = biological target: T1, AT1R; test: ERK1/2 phosphorylation by Western blotting in cells transiently expressing the AT1R; type: cell-based; conditions: 1 μM, 2-30 minutes, compared to AngII
Procedure: Cells transiently expressing the AT1R were seeded on 6-well plates in fully supplemented DMEM and kept at 37 °C. […] Cells were lysed with lysis buffer consisting of 10 mM Tris-HCl, pH 7.5, 150 mM NaCl, 1 mM EDTA, 1mM EGTA, 0.1% SDS, 1% Nonidet P-40 and the following protease inhibitors: 2 mM PMSF, 100 µg/mL SBTI, 10 µg/mL leupeptin, 100 µg/mL aprotinin, 10 mM benzamidin and 2 mM sodium orthovanadate. Following homogenization at 4 °C, during 30 minutes, cellular lysates were centrifuged for 15 minutes (18,000 × g) at 4 °C and total protein from the supernatants was quantified by the Bradford method (Bio-Rad, Hercules, CA). After that, 50 µg of total protein were resolved in SDS-PAGE, transferred to nitrocellulose membranes and Western blotting was performed against total ERK (tERK) and phosphorylated ERK (pERK) (both antibodies from Santa Cruz Biotechnology, Santa Cruz, CA, USA; and molecular size markers from ThermoFisher Scientific, Catalog Number 26610). Blots were captured with ImageQuant 350 (GE Healthcare, Piscataway, NJ, USA). Densitometric values obtained after analyses with ImageJ program (http://rsb.info.nhi.gov/ij/) were used to calculate a ratio pERK/tERK, and corresponding results were plotted using GraphPad software (GraphPad, San Diego, CA) as fold of increase over the basal value obtained with vehicle-treated control.

AT1R [10] = test: BRET assay of β-arrestin 2 recruitment to AT1R-GFP (β-arr2-RLucII); type: cell-based; conditions: for β-arr2 recruitment Emax (%): percentage of the maximum values obtained for AngII
Procedure: as §4
(§7) HEK293T cells transiently expressing the AT1R (or AT1R-GFP) and BRET-based biosensors (Gαq-RLucII or Gαi3-RLucII, Gβ1 and Gγ1-GFP10; RLucII-β-arr1-GFP10; RLucII-β-arr2-GFP10; β-arr1-RLucII; β-arr2-RLucII) were washed once with PBS, detached, and seeded in 96-well white plates (OptiPlate – PerkinElmer, Waltham, MA, USA). Following agonist stimulation, cells were incubated at 37 °C and the luciferase substrate (coelenterazine H for BRET1 or coelenterazine 400a for BRET2 – Biotium, Hayward, CA, USA) was added 5 min before reading BRET in a Victor^TM X Light Luminescence microplate reader (PerkinElmer) equipped with different donor/acceptor emission filter sets. The BRET signal was determined as the ratio of light emitted by fluorescently-labeled biosensors, detected with energy acceptor filters (530 ± 20 nm for BRET1 or 515 ± 20 nm for BRET2), and light emitted by RLucII-tagged biosensors, detected with energy donor filters (480 ± 20 nm for BRET[1] or 410 ± 40 nm for BRET2). The specific BRET signal was defined as the difference between the total BRET signals and the one obtained with RLucII alone.

AT1R [11] = test: BRET assay of β-arrestin 1 recruitment to AT1R-GFP (β-arr1-RLucII); type: cell-based; conditions: for β-arr1 recruitment Emax (%): percentage of the maximum values obtained for AngII
Procedure: as §4, §7

## CC[C@H](C)[C@H](NC(=O)[C@H](Cc1ccc(O)cc1)NC(=O)[C@@H](NC(=O)[C@H](CCCNC(=N)N)NC(=O)[C@@H](N)CC(=O)O)C(C)C)C(=O)N[C@@H](Cc1c[nH]cn1)C(=O)N1CCC[C@H]1C(=O)O [Ang-(1-7), Asp-Arg-Val-Tyr-Ile-His-Pro]
AT1R [1]; intramolecular BRET, mean ± SEM, read-out: β-arr1 conf. changes pEC50 (converted)
  EC50: 245 nM
AT1R [1]; read-out: β-arr1 conf. changes Emax (%)
  Emax: 69.1%
AT1R [2]; competition against 0.5 nM [3H]AngII, HEK293T cells expressing AT1R, mean ± SEM, read-out: Binding pKi (converted)
  Ki: 219 nM
AT1R [2]; competition binding against [3H]AngII, read-out: affinity for the AT1R
  Ki: ~200 nM
AT1R [3]
  Gi3 activation, in words: did not trigger Gi3 activation
AT1R [4]; intramolecular BRET, mean ± SEM, read-out: β-arr2 conf. changes pEC50 (converted)
  EC50: 1380 nM
AT1R [4]; read-out: β-arr2 conf. changes Emax (%)
  Emax: 64.4%
[5]
  cardiac hypertrophy (left ventricular wall thickness): partially blocked the development of cardiac hypertrophy
  heart weight/body weight (HW/BW) ratio: partially blocked
AT1R [6]; HEK-293T
  Emax: 12.8%
AT1R [6]; any of the concentrations tested, HEK293T cells expressing AT1R
  Gq activation (separation of Gαq-RLucII from Gγ1-GFP10), in words: did not promote the separation of Gαq-RLucII from Gγ1-GFP10
AT1R [7]; HEK-293T, read-out: Ca2+ mobilization Emax (%)
  Emax: 24.8%
AT1R [7]; concentration-response curve, HEK293T cells expressing AT1R
  intracellular Ca2+ mobilization, in words: only a weak increase in intracellular Ca^2+ levels
[8]
  end-diastolic pressure (EDP): completely prevented the increase in EDP
AT1R [9]
  ERK1/2 phosphorylation: partial agonist resulting in lower and more transient activation
AT1R [10]; BRET, mean ± SEM
  β-arr2 recruitment pEC50: 6.56 ± 0.09
AT1R [10]
  β-arr2 recruitment Emax (%): 87.7%
AT1R [10]; listed as Ang1-7
  β-arr2 recruitment Emax (%): ~90%
AT1R [11]; BRET, mean ± SEM
  β-arr1 recruitment pEC50: 6.38 ± 0.14
AT1R [11]
  β-arr1 recruitment Emax (%): 67.8%
AT1R [11]; listed as Ang1-7
  β-arr1 recruitment Emax (%): ~70%
